# In article PMC9065348 (Frontiers in Pharmacology, 2022):
# Where two headings read alike, the source gives them in different places.
# What was measured:
# CYP3A4 = CYP3A4 (Homo sapiens, UniProt P08684); conditions: Human liver microsomes, cited from earlier work
# CYP2C9 [1] = target: T1, CYP2C9 (Homo sapiens, UniProt P11712); conditions: Human liver microsomes, cited from earlier work
# T1 construct: respectively, were mixed with human liver microsomes; tissue In Vitro Technologies (Noble Park North, VIC, Australia); host or cells: human liver microsomes
# T1 sequence (P11712 whole entry): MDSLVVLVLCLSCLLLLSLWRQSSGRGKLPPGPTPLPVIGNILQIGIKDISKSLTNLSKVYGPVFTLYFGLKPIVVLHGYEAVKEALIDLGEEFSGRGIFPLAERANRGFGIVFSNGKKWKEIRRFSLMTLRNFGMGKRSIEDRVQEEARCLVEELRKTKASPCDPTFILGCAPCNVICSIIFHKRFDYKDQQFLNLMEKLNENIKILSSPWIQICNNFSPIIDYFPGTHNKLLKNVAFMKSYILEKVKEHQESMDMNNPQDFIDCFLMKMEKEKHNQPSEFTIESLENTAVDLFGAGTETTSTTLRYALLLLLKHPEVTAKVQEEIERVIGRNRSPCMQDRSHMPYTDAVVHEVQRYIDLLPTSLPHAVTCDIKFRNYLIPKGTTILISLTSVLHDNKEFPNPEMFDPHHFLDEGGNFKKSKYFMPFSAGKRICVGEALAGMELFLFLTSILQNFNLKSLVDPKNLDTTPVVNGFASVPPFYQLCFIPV
# [2] = system: hypertension rat model established by L-NAME; assay: Antihypertensive efficacy (tail artery blood pressure) in L-NAME hypertension rat model; type: in vivo, Wistar rats
# Experimental: A total of 48 Wistar rats were treated with L-NAME (60 mg/kg·d^-1) intragastrically for 4 weeks ([[…] al., 2003]; [[…] et al., 2002]; [Ahad et al., 2020a]). Systolic blood pressure (SBP) ≥140 mmHg was considered to be a successful hypertension model and was used to maintain L-NAME treatment until animal death. The blood pressure measurement method was performed as described in previous literature studies and the blood pressure of each rat was determined by the average of 5 measurements by a non-invasive rat tail sphygmomanometer (BP-2006A, Beijing Softron Biotechnology Co., Ltd.) ([Gillis et al., 2020]; [Dias et al., 2021]). This experimental protocol was approved by the Animal Care and Use Committee of Shanghai University of Traditional Chinese Medicine. A total of 36 hypertensive rats and 6 normal rats were included in this experiment. […] A total of 6 normal rats were assigned to a blank group without any treatment. Following the treatment of the rats for 2 weeks, the blood pressure of their tail artery was measured.
# [3] = Pharmacokinetics of LOS and EXP3174 in the hypertension rat model (LC-MS); type: in vivo, Wistar rats; conditions: hypertensive rats (L-NAME); for AUC(0-inf) / AUC(0-t) / Cmax / MRT / Tmax / half-life: Wistar, rat, plasma, po, 10 mg/kg/day
# Experimental: All samples were centrifuged at 3,000 rpm for 10 min, and the upper plasma was collected for Liquid Chromatography Mass Spectrometry (LC-MS) analysis. The LOS and EXP3174 in rat serum were quantitatively determined by a validated LC-MS method. The LC-MS system contained a Q/Exactive Quadrupole/Electrostatic Field Track Well High Resolution Mass Spectrometer (Thermo Fisher Scientific, Waltham, MA, United States) and a Dionex Ultimate 3,000 High-pressure liquid chromatography (Dionex, Subsidiary, CA, United States) system equipped with an electro-spray ionization source. […] The mobile phase included 0.1% formic acid aqueous solution (C) and acetonitrile (D) at a flow rate of 0.3 ml/min. The proportion of phase B in the mobile phase was adjusted from 40 to 5% at 0-2 min, 5% at 2-4 min, 40% at 4-5 min. The parameters of mass spectrometry for each analyte were shown in Supplementary Figure S1 . The collected data were analyzed through Xcalibur 4.1 software. The serum drug concentration data in each sample were obtained by calculation. The pharmacokinetic parameters corresponding to each rat were calculated using the “non-compartmental model” of the “PK solution 2.0TM (Summit Research Services, United States)” pharmacokinetic software. The half-life (t 1/2 ), peak drug concentration (C max), peak time (T max), the area under the plasma concentration-time curve (AUC) from time zero to the time of the last measurable plasma concentration (AUC 0-t ), AUC from time zero to infinity (AUC 0-∞ ), mean residence time (MRT), clearance (CL), apparent volume of distribution (V d ), and relative bioavailability (Frel) were calculated.
# [4] = Pharmacokinetics of LOS and EXP3174 in non-hypertensive Wistar rats (LC-MS); type: in vivo; conditions: Wistar rats without L-NAME
# Experimental: All groups were treated for 2 weeks and the blood collection time and methods of serum management were the same as those mentioned above. The LOS and EXP3174 in rat serum were quantitatively determined by a validated LC-MS method. The LC-MS system contained a Q/Exactive Quadrupole/Electrostatic Field Track Well High Resolution Mass Spectrometer (Thermo Fisher Scientific, Waltham, MA, United States) and a Dionex Ultimate 3,000 High-pressure liquid chromatography (Dionex, Subsidiary, CA, United States) system equipped with an electro-spray ionization source. […] The mobile phase included 0.1% formic acid aqueous solution (C) and acetonitrile (D) at a flow rate of 0.3 ml/min. The proportion of phase B in the mobile phase was adjusted from 40 to 5% at 0–2 min, 5% at 2–4 min, 40% at 4–5 min. The parameters of mass spectrometry for each analyte were shown in Supplementary Figure S1 . The collected data were analyzed through Xcalibur 4.1 software. The serum drug concentration data in each sample were obtained by calculation. The pharmacokinetic parameters corresponding to each rat were calculated using the “non-compartmental model” of the “PK solution 2.0TM (Summit Research Services, United States)” pharmacokinetic software. The half-life (t 1/2 ), peak drug concentration (C max), peak time (T max), the area under the plasma concentration-time curve (AUC) from time zero to the time of the last measurable plasma concentration (AUC 0-t ), AUC from time zero to infinity (AUC 0-∞ ), mean residence time (MRT), clearance (CL), apparent volume of distribution (V d ), and relative bioavailability (Frel) were calculated.
# CYP2C9 [5] = assay: Western blot of rat liver tissue, CYP2C9 protein expression; type: in vivo; conditions: liver of hypertensive rats; comparison between all groups; p > 0.05
# Text: The immunoreactive bands were detected by chemiluminescence.
# [6] = system: hypertension rat model established with L-NAME; set-up: method as in Ahad et al., 2020b; conditions: within 2 h following 10 mg kg^−1 LOS; rat model after 2 weeks L-NAME; ref Ahad et al., 2020b; cited from earlier work
# [7] = cited from earlier work
# [8] = 4 weeks of L-NAME 60 mg/kg/d intragastric, model group
# [9] = 6 weeks of continuous L-NAME, model group
# [10] = vs model group, 2 weeks treatment, SMI 6 ml/kg/d tail vein (SMI-H), LOS 10 mg/kg/d intragastric
# [11] = LOS 10 mg/kg/d ig + SMI 2 ml/kg/d tail vein (SMI-L+LOS group)
# [12] = LOS 10 mg/kg/d ig + SMI 4 ml/kg/d tail vein (SMI-M+LOS group)
# [13] = LOS 10 mg/kg/d ig + SMI 6 ml/kg/d tail vein (SMI-H+LOS group)
# [14] = LOS 10 mg/kg/d ig alone (LOS group)
# [15] = LOS 10 mg/kg/d ig + SMI 6 ml/kg/d tail vein (BLANK + SMI-H+LOS group)
# [16] = LOS 10 mg/kg/d ig alone (BLANK + LOS group)
# [17] = rat, serum, po, LOS 10 mg/kg/d ig alone (BLANK + LOS group)
# Chain of CYP3A4 (P08684 whole entry): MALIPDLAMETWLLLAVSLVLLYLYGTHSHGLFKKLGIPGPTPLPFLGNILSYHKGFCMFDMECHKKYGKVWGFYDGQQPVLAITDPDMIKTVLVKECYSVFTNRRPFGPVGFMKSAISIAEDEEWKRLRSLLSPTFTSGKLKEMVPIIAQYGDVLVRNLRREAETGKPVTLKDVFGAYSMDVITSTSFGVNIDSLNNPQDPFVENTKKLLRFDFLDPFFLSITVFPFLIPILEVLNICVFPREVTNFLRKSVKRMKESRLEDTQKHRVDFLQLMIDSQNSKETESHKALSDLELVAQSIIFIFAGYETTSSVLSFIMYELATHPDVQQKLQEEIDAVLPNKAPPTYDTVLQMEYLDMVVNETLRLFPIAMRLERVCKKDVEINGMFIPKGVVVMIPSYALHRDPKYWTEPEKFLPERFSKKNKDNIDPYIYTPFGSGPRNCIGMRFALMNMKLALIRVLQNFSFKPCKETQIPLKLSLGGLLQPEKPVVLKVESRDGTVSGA
structure (smiles),measurement,setting,value
CC(C)=CCC[C@](C)(O[C@@H]1O[C@H](CO[C@@H]2O[C@H](CO)[C@@H](O)[C@H](O)[C@H]2O)[C@@H](O)[C@H](O)[C@H]1O)[C@H]1CC[C@]2(C)[C@@H]1[C@H](O)C[C@@H]1[C@@]3(C)CC[C@H](O[C@@H]4O[C@H](CO)[C@@H](O)[C@H](O)[C@H]4O[C@@H]4O[C@H](CO)[C@@H](O)[C@H](O)[C@H]4O)C(C)(C)[C@@H]3CC[C@]12C [Ginsenoside Rb1],Effects on CYP3A4,CYP3A4; ref Hao et al. (2008),Inhibition
same,Effects on CYP3A4,"CYP3A4; ref He and Edeki, (2004)",Inhibition
same,Effects on CYP2C9,CYP2C9 [1]; ref Hao et al. (2008),Inhibition
same,Effects on CYP2C9,"CYP2C9 [1]; ref He and Edeki, (2004)",Inhibition
"COC(=O)[C@@H](N)CCCNC(N)=N[N+](=O)[O-] [L-NAME, N (omega)-nitro-L-arginine methyl ester]",increase in DBP,[2]; [8],34.83 ± 8.82 mmHg
same,increase in MAP,[2]; [8],36.00 ± 6.10 mmHg
same,increase in SBP,[2]; [8],37.83 ± 8.52 mmHg
same,average increase in DBP,[2]; [9],42.33 ± 15.34 mmHg
same,average increase in MAP,[2]; [9],46.00 ± 13.11 mmHg
same,average increase in SBP,[2]; [9],50.50 ± 6.09 mmHg
"CCCCc1nc(Cl)c(CO)n1Cc1ccc(-c2ccccc2-c2nn[nH]n2)cc1 [LOS, losartan potassium]",decrease in DBP,[2]; [10],12.14%
same,decrease in MAP,[2]; [10],11.92%
same,decrease in SBP,[2]; [10],6.32%
same,AUC(0-inf),[3]; [11],1210 ng·h/mL
same,AUC(0-t),[3]; [11],1110 ng·h/mL
same,Cmax,[3]; [11],125 ± 53.6 ng/mL
same,MRT,[3]; [11],8.54 ± 1.8 h
same,Tmax,[3]; [11],2.2 ± 0.84 h
same,half-life,[3]; [11],404 ± 38.4 min
same,AUC(0-inf),[3]; [12],1430 ng·h/mL
same,AUC(0-t),[3]; [12],1250 ng·h/mL
same,Cmax,[3]; [12],132 ± 35 ng/mL
same,MRT,[3]; [12],11.3 ± 2.22 h
same,Tmax,[3]; [12],1.5 ± 0.55 h
same,half-life,[3]; [12],505 ± 85.8 min
same,AUC(0-inf),[3]; [13],1420 ng·h/mL
same,AUC(0-t),[3]; [13],1240 ng·h/mL
same,Cmax,[3]; [13],156 ± 64.1 ng/mL
same,MRT,[3]; [13],12.1 ± 1.02 h
same,Tmax,[3]; [13],2.33 ± 0.52 h
same,half-life,[3]; [13],595 ± 57.6 min
same,AUC(0-inf),[3]; [14],841 ± 232 ng·h/mL
same,AUC(0-t),[3]; [14],787 ± 213 ng·h/mL
same,Cmax,[3]; [14],112 ± 41.7 ng/mL
same,MRT,[3]; [14],8.18 ± 0.89 h
same,Tmax,[3]; [14],2 ± 0.89 h
same,half-life,[3]; [14],371 ± 25.8 min
same,CL,[3]; [11],"27,497.47 ± 14,702.73 ml/h/kg"
same,Vd,[3]; [11],"264,405.76 ± 142,122.69 ml/kg"
same,CL,[3]; [12],"17,964.40 ± 3,185.66 ml/h/kg"
same,Vd,[3]; [12],"217,016.60 ± 45,076.20 ml/kg"
same,CL,[3]; [13],"19,127.96 ± 5,549.27 ml/h/kg"
same,Vd,[3]; [13],"277,463.55 ± 98,140.99 ml/kg"
same,CL,[3]; [14],"32,042.39 ± 10,551.59 ml/h/kg"
same,Vd,[3]; [14],"282,441.65 ± 73,729.85 ml/kg"
same,increase of AUC 0-t compared with LOS group,[3]; SMI-H + LOS group (SMI 6 ml/kg/d),58.1%
same,CL,[4]; [15],"5,327.27 ± 1,010.94 ml/h/kg"
same,Vd,[4]; [15],"67,493.75 ± 17,745.97 ml/kg"
same,CL,[4]; [16],"10,392.48 ± 1,296.50 ml/h/kg"
same,Vd,[4]; [16],"90,573.23 ± 13,394.06 ml/kg"
same,AUC(0-inf),[4]; [17],975 ± 121 ng·h/mL
same,AUC(0-t),[4]; [17],911 ± 115 ng·h/mL
same,Cmax,[4]; [17],108 ± 6.26 ng/mL
same,MRT,[4]; [17],8.6 ± 0.54 h
same,Tmax,[4]; [17],1.67 ± 0.52 h
same,half-life,[4]; [17],362 ± 11.4 min
same,CYP2C9 expression levels,CYP2C9 [5],no significant differences
same,decrease in SBP,[6],14.7%
same,increase of AUC 0-t of LOS,"[7]; with Ginkgo leaf tablets, ref Dong et al., 2018",70%
same,increase of AUC 0-t of LOS,"[7]; with Glimepirea, ref Chen et al., 2015",11.18%
same,increase of AUC of LOS,"[7]; with licochalcon A, ref Choi et al., 2013",33.38%
"CC(C)=CCC[C@](C)(O[C@@H]1O[C@H](CO)[C@@H](O)[C@H](O)[C@H]1O)[C@H]1CC[C@]2(C)[C@@H]1[C@H](O)C[C@@H]1[C@@]3(C)CC[C@H](O)C(C)(C)[C@@H]3[C@@H](O[C@@H]3O[C@H](CO)[C@@H](O)[C@H](O)[C@H]3O[C@@H]3O[C@@H](C)[C@H](O)[C@@H](O)[C@H]3O)C[C@]12C [Re, Ginsenoside Re]",Effects on CYP3A4,CYP3A4; ref Hao et al. (2008),Inhibition
same,Effects on CYP2C9,CYP2C9 [1]; ref Hao et al. (2008),Inhibition
"CC(C)=CCC[C@](C)(O[C@@H]1O[C@H](CO)[C@@H](O)[C@H](O)[C@H]1O)[C@H]1CC[C@]2(C)[C@@H]1[C@H](O)C[C@@H]1[C@@]3(C)CC[C@H](O)C(C)(C)[C@@H]3[C@@H](O[C@@H]3O[C@H](CO)[C@@H](O)[C@H](O)[C@H]3O)C[C@]12C [Rg1, Ginsenoside Rg1]",Effects on CYP3A4,CYP3A4; ref Hao et al. (2008),Inhibition
same,Effects on CYP2C9,CYP2C9 [1]; ref Hao et al. (2008),Inhibition
COc1cc2c(c(OC)c1OC)-c1c(cc(OC)c(OC)c1OC)C[C@](C)(O)[C@@H](C)C2 [schizandrin],Effects on CYP3A4,CYP3A4; ref Cao et al. (2009),Inhibition
